From patent US4870097A, “Pharmaceutical use of derivatives of tryptophan” (priority 1984, dated 1989)

What was measured:
[1] = test system: analgesic activity of morphine; assay: Tail Flick Test: increase in the analgesic effect of morphine; type: in vivo, rats; conditions: for percentage variation in the latency of the pain sensation, 10' / percentage variation in the latency of the pain sensation, 20' / percentage variation in the latency of the pain sensation, 30' / percentage variation in the latency of the pain sensation, 45' / percentage variation in the latency of the pain sensation, 60' / percentage variation in the latency of the pain sensation, 90' / M(10'-90') average percentage variation: compound 10 mg/kg i.p. + morphine 2 mg/kg (row Morphine: alone); for percentage variation in the latency of the pain sensation, 10' / percentage variation in the latency of the pain sensation, 20' / percentage variation in the latency of the pain sensation, 30' / percentage variation in the latency of the pain sensation, 45' / percentage variation in the latency of the pain sensation, 60' / percentage variation in the latency of the pain sensation, 90': ± S.E.; for M(10'-90') average percentage variation: mean 10'-90'; for Potency ratio relative to morphine alone: rat, in vivo
Method in brief: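 Male non-fasted rats, 150-200 g; heat source (75 °C) on tail, latency to tail movement timed, 8 s cut-off. Measured before and 10, 20, 30, 45, 60, 90 min after analgesic dosing; percentage variation per animal, averaged over groups of five.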

[2] = test system: guinea pig gall bladder contracted with CCK-8; assay: Anti-CCK activity on guinea pig gall bladders in vitro; type: biochemical; conditions: CCK-8 10 ng/ml, concentration antagonising 50% of contracting effect
Method in brief: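 Longitudinal gall bladder strips in Krebs at 32° C, gassed with O2/CO2 95:5, were contracted with CCK-8 at 10 ng/ml and contractions recorded isometrically via force transducer. ED50 in mcg/ml is the compound concentration antagonising 50% of CCK contraction, derived by regression over at least three experiments.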

[3] = test system: colon of rabbits stimulated with CCK-8; assay: Antispastic activity in the colon of rabbits stimulated with CCK-8; type: in vivo, rabbit; design: Antispastic activity, experiment 1 / Antispastic activity, experiment 2 / Antispastic activity, experiment 3: unit not given here; conditions: CCK 100 ng/kg; for ED50: Oryctolagus cuniculus, iv, three experiments
Description: The abdomen of an anaesthetised rabbit is cut open to expose the transverse colon. A balloon full of water is inserted at the point established and connected to a pressure transducer by means of a polyethylene cannula filled with H2 O.
The optimum sensitivity in relation to the physiological contractions is fixed and the products are administered through the femoral veins. Contractions are induced by the administration of 100 ng/kg of CCK.

In the case of `O=C(N[C@@H](Cc1c[nH]c2ccccc12)C(=O)O)OCc1ccc(Cl)cc1` [Compound 2], the “percentage variation in the latency of the pain sensation, 10'” value [1] is reported as 50.0 ± 14.9%, the “percentage variation in the latency of the pain sensation, 20'” value [1] is reported as 25.0 ± 26.0% and the “percentage variation in the latency of the pain sensation, 30'” value [1] is reported as 75.6 ± 17.6%. The “percentage variation in the latency of the pain sensation, 45'” value [1] was 23.7 ± 19.6%, the “percentage variation in the latency of the pain sensation, 60'” value [1] was 41.0 ± 20.3% and the “percentage variation in the latency of the pain sensation, 90'” value [1] was 43.6 ± 16.4%. The “M(10'-90') average percentage variation” value [1] was 44.6%, the “Potency ratio relative to morphine alone” value [1] was 1.50 and the “Anti CCK-8 activity, ED50” value [2] was 13.5 µg/mL. The “Antispastic activity, experiment 1” value ([3]; 1 mg/kg iv) was -10.9, the “Antispastic activity, experiment 2” value ([3]; 1 mg/kg iv) was -16.8 and the “Antispastic activity, experiment 3” value ([3]; 1 mg/kg iv) was -38.8. The “Antispastic activity, experiment 1” value ([3]; 3 mg/kg iv) was -31.4, the “Antispastic activity, experiment 2” value ([3]; 3 mg/kg iv) was -56.6 and the “Antispastic activity, experiment 3” value ([3]; 3 mg/kg iv) was -41.5. For the same compound, the “Antispastic activity, experiment 1” value ([3]; 10 mg/kg iv) was -85.9, the “Antispastic activity, experiment 2” value ([3]; 10 mg/kg iv) was -74.4 and the “Antispastic activity, experiment 3” value ([3]; 10 mg/kg iv) was -90.2. For the same compound, the ED50 [3] was 4.67 mg/kg.
`CC(C)c1ccc(C(=O)N[C@@H](Cc2c[nH]c3ccccc23)C(=O)O)cc1` [Compound 20] was tested, and the “percentage variation in the latency of the pain sensation, 10'” value [1] was 20.0 ± 12.8%, the “percentage variation in the latency of the pain sensation, 20'” value [1] was 33.1 ± 22.0% and the “percentage variation in the latency of the pain sensation, 30'” value [1] was 37.6 ± 18.9%. For the same compound, the “percentage variation in the latency of the pain sensation, 45'” value [1] was 37.5 ± 18.8%, the “percentage variation in the latency of the pain sensation, 60'” value [1] was 54.4 ± 19.3% and the “percentage variation in the latency of the pain sensation, 90'” value [1] was 33.2 ± 18.1%. The “M(10'-90') average percentage variation” value [1] was 36.0%, the “Potency ratio relative to morphine alone” value [1] was 1.21 and the “Anti CCK-8 activity, ED50” value [2] was 17.9 µg/mL. For the same compound, the “Antispastic activity, experiment 3” value ([3]; 0.3 mg/kg iv) was -12.8, the “Antispastic activity, experiment 1” value ([3]; 1 mg/kg iv) was -30.8 and the “Antispastic activity, experiment 2” value ([3]; 1 mg/kg iv) was -44.2. For the same compound, the “Antispastic activity, experiment 3” value ([3]; 1 mg/kg iv) was -34.7, the “Antispastic activity, experiment 1” value ([3]; 3 mg/kg iv) was -36.0 and the “Antispastic activity, experiment 2” value ([3]; 3 mg/kg iv) was -60.3. The “Antispastic activity, experiment 3” value ([3]; 3 mg/kg iv) was -59.0, the “Antispastic activity, experiment 1” value ([3]; 10 mg/kg iv) was -82.5 and the “Antispastic activity, experiment 2” value ([3]; 10 mg/kg iv) was -100.0. The ED50 [3] was 3.41 mg/kg.
